Assay results from publication PMC10079954, “Rational design of phase separating peptides based on phase separating protein sequence of p53” (Scientific Reports, 2023).

Key:
[1] = Phase separation of designed peptides by DIC and fluorescence microscopy; assay type: physicochemical; details: DIC microscopy; 0.9–1.8 mM peptide, 25 mM HEPES, 0.5 mM EDTA, pH 7.0, no salt, MPC polymer-coated coverslip, 20 or 22 °C
Description: Differential interference contrast (DIC) microscopy confirmed that these peptides (0.9–1.8 mM) underwent phase separation in 25 mM HEPES and 0.5 mM EDTA at pH 7.0 (Fig. 2B). To prevent the melting of clusters on the coverslip surface, 2-methacryloyloxyethyl phosphorylcholine (MPC) polymer coating was used[36],[37] (Supplementary Fig. S1). Samples were prepared by sonicating a 2 mM peptide solution or diluting the peptide solution from a 10 mM peptide stock after storage under freezing conditions. Four of the designed peptides, except DPp53N-GSGS-DPp53C2, formed μm-sized spherical clusters. Fluorescence microscopy confirmed the high concentration of peptides labeled with the fluorescent dye Alexa488 in the clusters (Fig. 2B). […] Cross-β structure was also supported by the observation of intrinsic fluorescence upon 400–440 nm excitation[40] (Supplementary Fig. S2). […]
(§1) The DIC and fluorescence modes of an inverted microscope (IX-73; Olympus, Tokyo, Japan) equipped with microscopic objectives (60 × and 10 ×) and a camera (DP74) were used, as described previously. […] DIC and fluorescence images were obtained at 20 or 22 °C. For intrinsic fluorescence measurements, the excitation and detection wavelengths were 440–440 nm and larger than 460 nm, respectively.

[2] = Cross-β structure detection with amyloid-sensitive probe Picogreen; assay type: physicochemical; details: Picogreen 25 µM, 25 mM HEPES, 0.5 mM EDTA, pH 7.0
Description: Differential interference contrast (DIC) microscopy confirmed that these peptides (0.9–1.8 mM) underwent phase separation in 25 mM HEPES and 0.5 mM EDTA at pH 7.0 (Fig. 2B). To prevent the melting of clusters on the coverslip surface, 2-methacryloyloxyethyl phosphorylcholine (MPC) polymer coating was used[36],[37] (Supplementary Fig. S1). Samples were prepared by sonicating a 2 mM peptide solution or diluting the peptide solution from a 10 mM peptide stock after storage under freezing conditions. Four of the designed peptides, except DPp53N-GSGS-DPp53C2, formed μm-sized spherical clusters. Fluorescence microscopy confirmed the high concentration of peptides labeled with the fluorescent dye Alexa488 in the clusters (Fig. 2B). […] Cross-β structure was also supported by the observation of intrinsic fluorescence upon 400–440 nm excitation[40] (Supplementary Fig. S2). Clusters of aromatic W residues in DPp53N-GSGS-DPp53C2 may lead to the formation of solid aggregates, which is consistent with the results of different systems[21],[34].
as §1, with “previously. We used the solution containing 0.9–1.8 mM designed peptide, 0.1 μM Alexa488-labeled peptide, 25 mM HEPES, and 0.5 mM EDTA at pH 7.0. To detect the cross-β structure, picogreen was added at 25 µM for DPp53N-GSGS-DPp53C2 or 2.5 µM for others instead of the Alexa488-labeled peptide.” for “previously.”
Fig. S8 Time course of cross-β structure formation of designed peptides in droplets monitored by DIC and fluorescence images. The fluorescence was detected corresponding to the amyloid marker Picogreen at 2.5 µM in a solution containing 0.9 mM designed peptides, 25 mM HEPES, and 0.5 mM EDTA at pH 7.0 and 22 °C.

[3] = Salt and 1,6-hexanediol dependence of droplet/aggregate formation (scattering at 350 nm, DIC); assay type: physicochemical; details: 1 mM peptide, 25 mM HEPES, 0.5 mM EDTA, pH 7.0, 22 °C; scattering at 350 nm and DIC
Description: We detected light scattering corresponding to the designed peptide droplets by measuring OD350 values using an absorbance spectrometer (NanoDrop One; Thermo Fisher).
(A, B) Effect of additives, 1,6-hexandiol (1,6-HD) and NaCl, on aggregate formation of DPp53N-GSGS-DPp53C2 was monitored as the scattering intensity observed at 350 nm (A) and via DIC images (B). The measurements were conducted in a solution containing 25 mM HEPES, 0.5 mM EDTA, and 1 mM DPp53N-GSGS-DPp53C2 in the presence or absence of additives at pH 7.0 and 22 °C.
Fig. S7 Designed peptide droplets are sensitive to salt concentration but not to 1,6-hexandiol. (A, B) Salt-concentration dependence of droplet formation of designed peptides monitored as the scattering intensity at 350 nm (A) and via DIC images (B). (C, D) Effect of 1,6-hexandiol on droplet formation of designed peptides monitored as the scattering intensity at 350 nm (C) and via DIC images (D). The measurements were performed in a solution containing 1 mM designed peptides, 25 mM HEPES, and 0.5 mM EDTA at pH 7.0 and 22 °C. In panels (A) and (C), the errors denote the standard errors of at least three measurements.

[4] = system: p53 monomer (L344P) mutant; assay: Recruitment (enrichment index) of p53 monomer into designed peptide droplets; design: species or system human
Text: (§2) We prepared p53 tetramer, dimer, and monomer mutants, as described previously[8],[37],[50]. For the p53 tetramer, a thermostable and cysteine-modified human p53 mutant (C124A, C135V, C141V, W146Y, C182S, V203A, R209P, C229Y, H233Y, Y234F, N235K, Y236F, T253V, N268D, C275A, C277A, and K292C) was used[50]. The dimer and monomer mutants of p53 corresponded to L344A and L344P of the tetramer sequence, respectively[8],[37]. These p53 mutants were expressed with a glutathione S-transferase (GST) tag in E. coli and purified after cleavage of the GST tag, as described previously[50],[51]. The oligomeric state of p53 mutants was confirmed using a gel filtration column (Superdex 200; GE Healthcare). p53 mutants were labeled with Atto488 (ATTO-TEC) or Alexa488 (Thermo Fisher) using maleimide chemistry and then purified using a heparin column (GE Healthcare). We prepared Alexa488-labeled FUS-MBP as described previously[37],[39].
(§3) Recruitment evaluations were performed following the method described in our previous studies[37],[41]. Solutions containing 0.9–1.8 mM designed peptides, 0.1 µM Alexa488-labeled p53 mutants or Alexa488, 25 mM HEPES, 0.5 mM EDTA, and 1 mM DTT at pH 7.0 were used. The solutions were then incubated at 22 °C for five minutes. The aforementioned microscope was used with HILO illumination. To prevent photo-bleaching of the fluorescent samples, we used a laser power of 0.15 mW. The images were acquired at 22 °C. Using the ImageJ software, we calculated the EI values of the individual droplets as follows:2 EI=Idroplet/Isolution, where Idroplet and Isolution represent the average fluorescence intensities of the individual droplets and solutions near the droplets with background substitution, respectively.

p53 dimer (L344A) mutant = assay: Recruitment (enrichment index) of p53 dimer into designed peptide droplets; design: species or system human; details: (GGGS)3-linker versus GSGS-linker droplets; no salt, pH 7.0
Text: as §2
Recruitment evaluations were performed following the method described in our previous studies[37],[41]. […] Using the ImageJ software, we calculated the EI values of the individual droplets as follows:2 EI=Idroplet/Isolution, where Idroplet and Isolution represent the average fluorescence intensities of the individual droplets and solutions near the droplets with background substitution, respectively.

p53 tetramer = assay: Recruitment (enrichment index) of p53 tetramer into designed peptide droplets; design: species or system human; details: no salt, pH 7.0
Text: as §2, §3

5-FAM-labeled DP_(p53N) = assay: fluorescence polarisation; fluorescence anisotropy; non-labeled peptide titrated into 40 nM 5-FAM-labeled DP_(p53N); 25 mM HEPES, 0.5 mM EDTA, 2 mg/mL BSA, 2 mM Trolox, pH 7.0, 25 °C; one-to-one binding model

## RRRVVQRRRRGSGSEDDDWWMWWD [DPp53N-GSGS-DPp53C2]
[1]
  Cluster morphology (phase separation): non-spherical clusters that corresponded to solid aggregates
[2]
  Picogreen fluorescence of clusters: high intensity
[3]
  Aggregate formation at high concentrations of salt and 1,6-hexanediol: not significantly suppressed

## RRRVVQRRRRGGGSGGGSGGGSDDDDDDD [DPp53N-(GGGS)3-D7]
[4]; (GGGS)3-linker versus GSGS-linker droplets, no salt, pH 7.0
  Decrease of average EI of p53 monomer mutant compared to the GSGS-linker peptide: 1.8 fold
p53 dimer (L344A) mutant
  Increase of average EI of p53 dimer mutant compared to the GSGS-linker peptide: 3.3 fold
p53 tetramer; (GGGS)3-linker versus GSGS-linker droplets
  Increase of average EI of p53 tetramer compared to the GSGS-linker peptide: 3.1 fold

## RRRVVQRRRRGSGSDDDASQEDDD [DPp53N-GSGS-DPp53C1]
[4]; 0.9–1.8 mM designed peptide, 0.1 µM Alexa488-labeled p53, 25 mM HEPES, 0.5 mM EDTA, 1 mM DTT, pH 7.0, 22 °C, ± standard error, SEM
  Enrichment index (EI) of p53 monomer (L344P) mutant in peptide droplets: 14.7 ± 0.5
p53 tetramer; droplet interior regions, surface not included
  Decrease of average EI of p53 tetramer relative to p53 monomer: 2.6 fold

## GSGSDDDDDDD [GSGS-D7]
5-FAM-labeled DP_(p53N)
  fold higher affinity than the DP (p53C)1 fragment for the DP (p53N) fragment: 2 fold
